The values below come from article PMC5218480 (PLoS ONE, 2017).

This experiment concerns MV-4-11 cells. Put plainly: Gene expression microarray analysis (Affymetrix PrimeView) and GSEA. The class given is cell-based, human. Also on record: RFU PODN (11730768_x_at) / Fold change /veh PODN (11730768_x_at) / RFU LINC00158 (11744669_a_at) / Fold change /veh LINC00158 (11744669_a_at) / RFU DUSP10 (11751237_a_at) / Fold change /veh DUSP10 (11751237_a_at) / RFU ID3 (11757404_x_at) / Fold change /veh ID3 (11757404_x_at) / RFU PLEKHG5 (11737974_s_at) / Fold change /veh PLEKHG5 (11737974_s_at) / RFU LRRC4B (11730491_at) / Fold change /veh LRRC4B (11730491_at) / RFU GIMAP4 (11747438_a_at) / Fold change /veh GIMAP4 (11747438_a_at) / RFU KRT8 (11758183_x_at) / Fold change /veh KRT8 (11758183_x_at) / RFU CNN1 (11734310_a_at) / Fold change /veh CNN1 (11734310_a_at) / RFU VPS37D (11726825_at) / Fold change /veh VPS37D (11726825_at) / RFU C10orf10 (11716522_x_at) / Fold change /veh C10orf10 (11716522_x_at) / RFU KIR2DL2 /// KIR2DL4 /// KIR2DL5A /// KIR2DL5B /// KIR2DS1 /// KIR2DS2 /// KIR2DS3 /// KIR2DS4 /// KIR3DL3 /// KIR3DL3 /// KIR3DS1 (11738374_at) / Fold change /veh KIR2DL2 /// KIR2DL4 /// KIR2DL5A /// KIR2DL5B /// KIR2DS1 /// KIR2DS2 /// KIR2DS3 /// KIR2DS4 /// KIR3DL3 /// KIR3DL3 /// KIR3DS1 (11738374_at) / RFU C1QL1 (11718748_at) / Fold change /veh C1QL1 (11718748_at) / RFU TMPRSS4 (11747572_a_at) / Fold change /veh TMPRSS4 (11747572_a_at) / RFU HAMP (11756126_x_at) / Fold change /veh HAMP (11756126_x_at) / RFU RNFT2 (11725882_a_at) / Fold change /veh RNFT2 (11725882_a_at) / RFU NR4A2 (11747474_a_at) / Fold change /veh NR4A2 (11747474_a_at) / RFU ABCC12 (11746883_a_at) / Fold change /veh ABCC12 (11746883_a_at) / RFU TMEM136 (11760407_x_at) / Fold change /veh TMEM136 (11760407_x_at) / RFU CLDN22 /// WWC2 (11732394_at) / Fold change /veh CLDN22 /// WWC2 (11732394_at) / RFU HLA-DPB1 (11760878_x_at) / Fold change /veh HLA-DPB1 (11760878_x_at) / RFU SPINT1 (11716480_a_at) / Fold change /veh SPINT1 (11716480_a_at) / RFU GAP43 (11754022_s_at) / Fold change /veh GAP43 (11754022_s_at) / RFU A4GNT (11735810_at) / Fold change /veh A4GNT (11735810_at) / RFU PRB3 (11715151_x_at) / Fold change /veh PRB3 (11715151_x_at) / RFU TUBB4B (11761932_at) / Fold change /veh TUBB4B (11761932_at) / RFU CAPN14 (11732068_a_at) / Fold change /veh CAPN14 (11732068_a_at) / RFU TMCC2 (11721928_a_at) / Fold change /veh TMCC2 (11721928_a_at) / RFU IRGQ (11745062_a_at) / Fold change /veh IRGQ (11745062_a_at) / RFU FAM174B (11720279_a_at) / Fold change /veh FAM174B (11720279_a_at) / RFU TMPRSS4 (11748680_a_at) / Fold change /veh TMPRSS4 (11748680_a_at) / RFU FAM212B (11763350_a_at) / Fold change /veh FAM212B (11763350_a_at) / RFU PLEKHG5 (11743358_a_at) / Fold change /veh PLEKHG5 (11743358_a_at) / RFU ZSCAN30 (11745921_a_at) / Fold change /veh ZSCAN30 (11745921_a_at) / RFU CMKLR1 (11741424_a_at) / Fold change /veh CMKLR1 (11741424_a_at) / RFU LOC101060620 /// MAPK8IP1 (11723275_at) / Fold change /veh LOC101060620 /// MAPK8IP1 (11723275_at) / RFU SPTSSB (11747773_x_at) / Fold change /veh SPTSSB (11747773_x_at) / RFU PRSS12 (11739890_at) / Fold change /veh PRSS12 (11739890_at) / RFU BIN1 (11741810_x_at) / Fold change /veh BIN1 (11741810_x_at) / RFU WNT11 (11732464_a_at) / Fold change /veh WNT11 (11732464_a_at) / RFU C10orf10 (11716521_a_at) / Fold change /veh C10orf10 (11716521_a_at) / RFU C5orf56 (11738089_at) / Fold change /veh C5orf56 (11738089_at) / RFU CYB561 (11721691_x_at) / Fold change /veh CYB561 (11721691_x_at) / RFU ANKRD19P (11752326_a_at) / Fold change /veh ANKRD19P (11752326_a_at) / RFU OR2T12 /// OR2T33 /// OR2T8 (11738714_s_at) / Fold change /veh OR2T12 /// OR2T33 /// OR2T8 (11738714_s_at) / RFU VCAN (11748164_a_at) / Fold change /veh VCAN (11748164_a_at) / RFU JSRP1 (11732532_at) / Fold change /veh JSRP1 (11732532_at) / RFU KRTAP10-11 (11738290_x_at) / Fold change /veh KRTAP10-11 (11738290_x_at) / RFU MYO3A (11730013_a_at) / Fold change /veh MYO3A (11730013_a_at) / RFU EBF3 (11725865_a_at) / Fold change /veh EBF3 (11725865_a_at) / RFU CAMK2N1 (11719241_x_at) / Fold change /veh CAMK2N1 (11719241_x_at) / RFU C5orf56 (11738088_a_at) / Fold change /veh C5orf56 (11738088_a_at) / RFU OLFML3 (11715873_a_at) / Fold change /veh OLFML3 (11715873_a_at) / RFU LOC100653217 /// NTM (11731650_a_at) / Fold change /veh LOC100653217 /// NTM (11731650_a_at) / RFU MAPK11 (11762145_a_at) / Fold change /veh MAPK11 (11762145_a_at) / RFU FIZ1 (11724087_x_at) / Fold change /veh FIZ1 (11724087_x_at) / RFU OASL (11726364_x_at) / Fold change /veh OASL (11726364_x_at) / RFU SOX15 (11748057_x_at) / Fold change /veh SOX15 (11748057_x_at) / RFU CD79A (11719716_a_at) / Fold change /veh CD79A (11719716_a_at) / RFU HIST1H1D (11736915_at) / Fold change /veh HIST1H1D (11736915_at) / RFU CASKIN2 (11723855_a_at) / Fold change /veh CASKIN2 (11723855_a_at) / RFU LOC730098 (11760151_x_at) / Fold change /veh LOC730098 (11760151_x_at) / RFU OR4N2 (11742367_at) / Fold change /veh OR4N2 (11742367_at) / RFU PRRT2 (11749266_a_at) / Fold change /veh PRRT2 (11749266_a_at) / RFU SNX32 (11753110_a_at) / Fold change /veh SNX32 (11753110_a_at) / RFU CDHR5 (11726645_a_at) / Fold change /veh CDHR5 (11726645_a_at) / RFU RCAN1 (11760418_a_at) / Fold change /veh RCAN1 (11760418_a_at) / RFU FAM167A (11723789_a_at) / Fold change /veh FAM167A (11723789_a_at) / RFU FAM26E (11764081_at) / Fold change /veh FAM26E (11764081_at) / RFU ISYNA1 (11749810_s_at) / Fold change /veh ISYNA1 (11749810_s_at) / RFU ACY1 (11761880_at) / Fold change /veh ACY1 (11761880_at) / RFU 11764098_at / Fold change /veh 11764098_at / RFU SAMD14 (11745864_x_at) / Fold change /veh SAMD14 (11745864_x_at) / RFU NPB (11741838_a_at) / Fold change /veh NPB (11741838_a_at) / RFU TMPRSS6 (11731388_a_at) / Fold change /veh TMPRSS6 (11731388_a_at) / RFU KRTAP10-2 (11738614_at) / Fold change /veh KRTAP10-2 (11738614_at) / RFU ARHGAP8 /// PRR5-ARHGAP8 (11727945_x_at) / Fold change /veh ARHGAP8 /// PRR5-ARHGAP8 (11727945_x_at) / RFU KRTAP5-7 /// NADSYN1 (11734609_at) / Fold change /veh KRTAP5-7 /// NADSYN1 (11734609_at) / RFU RASL12 (11751679_a_at) / Fold change /veh RASL12 (11751679_a_at) / RFU CDKN2B (11736163_a_at) / Fold change /veh CDKN2B (11736163_a_at) / RFU PRF1 (11729649_at) / Fold change /veh PRF1 (11729649_at) / RFU, ZNF638 /// ZNF638-IT1 / Fold change vs veh, ZNF638 /// ZNF638-IT1 / RFU, PANK3 / Fold change vs veh, PANK3 / RFU, SH3YL1 / Fold change vs veh, SH3YL1 / RFU, ZEB2 / Fold change vs veh, ZEB2 / RFU, NRIP1 / Fold change vs veh, NRIP1 / RFU, PTTG1IP / Fold change vs veh, PTTG1IP / RFU, CAPN2 / Fold change vs veh, CAPN2 / RFU, MED14 / Fold change vs veh, MED14 / RFU, SNORA58 / Fold change vs veh, SNORA58 / RFU, C1orf63 / Fold change vs veh, C1orf63 / RFU, LRRFIP1 / Fold change vs veh, LRRFIP1 / RFU, NDUFAF7 / Fold change vs veh, NDUFAF7 / RFU, SLC12A2 / Fold change vs veh, SLC12A2 / RFU, IBTK / Fold change vs veh, IBTK / RFU, ESF1 / Fold change vs veh, ESF1 / Fold change vs veh, TMEM50B / RFU, TAOK1 / Fold change vs veh, TAOK1 / RFU, ACBD3 / Fold change vs veh, ACBD3 / RFU, TMA16 / Fold change vs veh, TMA16 / RFU, RWDD3 / Fold change vs veh, RWDD3 / RFU, BCAT1 / Fold change vs veh, BCAT1 / RFU, EDEM3 / Fold change vs veh, EDEM3 / RFU, TMEM33 / Fold change vs veh, TMEM33 / RFU, WDR75 / Fold change vs veh, WDR75 / RFU, AHCTF1 / Fold change vs veh, AHCTF1 / RFU, TFRC / Fold change vs veh, TFRC / RFU, ZDHHC17 / Fold change vs veh, ZDHHC17 / RFU, NOM1 / Fold change vs veh, NOM1 / RFU, ARL8B / Fold change vs veh, ARL8B / RFU, ZBTB11 / Fold change vs veh, ZBTB11 / RFU, TAMM41 / Fold change vs veh, TAMM41 / RFU, KIAA1704 /// LOC100996395 / Fold change vs veh, KIAA1704 /// LOC100996395 / RFU, ING1 / Fold change vs veh, ING1 / RFU, TRMT61B / Fold change vs veh, TRMT61B / RFU, FUBP3 / Fold change vs veh, FUBP3 / RFU, TP53 / Fold change vs veh, TP53 / RFU, TNKS2 / Fold change vs veh, TNKS2 / RFU, ZFP14 / Fold change vs veh, ZFP14 / RFU, ACTR2 / Fold change vs veh, ACTR2 / RFU, PPP3R1 / Fold change vs veh, PPP3R1 / RFU, PIK3R1 / Fold change vs veh, PIK3R1 / RFU, HNRNPA1 / Fold change vs veh, HNRNPA1 / RFU, RNF170 / Fold change vs veh, RNF170 / RFU, ZNF28 / Fold change vs veh, ZNF28 / RFU, RNGTT / Fold change vs veh, RNGTT / RFU, OGT / Fold change vs veh, OGT / RFU, BRD1 / Fold change vs veh, BRD1 / RFU, MARS / Fold change vs veh, MARS / RFU, ZNF655 / Fold change vs veh, ZNF655 / RFU, FAHD1 / Fold change vs veh, FAHD1 / RFU, BDP1 / Fold change vs veh, BDP1 / RFU, LRRCC1 / Fold change vs veh, LRRCC1 / RFU, ARID1A / Fold change vs veh, ARID1A / RFU, ZNF146 / Fold change vs veh, ZNF146 / RFU, ZNF330 / Fold change vs veh, ZNF330 / RFU, GPN3 / Fold change vs veh, GPN3 / RFU, C9orf123 / Fold change vs veh, C9orf123 / RFU, N4BP2L2 / Fold change vs veh, N4BP2L2 / RFU, ARFIP1 / Fold change vs veh, ARFIP1 / RFU, FAM179B / Fold change vs veh, FAM179B / RFU, BCL10 / Fold change vs veh, BCL10 / RFU, UHRF1BP1L / Fold change vs veh, UHRF1BP1L / RFU, BET1 / Fold change vs veh, BET1 / RFU, CNOT2 / Fold change vs veh, CNOT2 / RFU, ZNF268 / Fold change vs veh, ZNF268 / Fold change vs veh, ZNF507 / RFU, DGCR2 / Fold change vs veh, DGCR2 / RFU, WDSUB1 / Fold change vs veh, WDSUB1 / Fold change vs veh, HSP90B1 /// MIR3652 / RFU, ADSS / Fold change vs veh, ADSS / RFU, GK / Fold change vs veh, GK / RFU, ZNF148 / Fold change vs veh, ZNF148 / RFU, TAF9 / Fold change vs veh, TAF9 / RFU, SLC1A5 / Fold change vs veh, SLC1A5 / RFU, SLMO2 / Fold change vs veh, SLMO2 / RFU, ABCC4 / Fold change vs veh, ABCC4 / RFU, LOC101060439 /// RAP1B / Fold change vs veh, LOC101060439 /// RAP1B / RFU, RFX7 / Fold change vs veh, RFX7 / RFU, GTPBP10 / Fold change vs veh, GTPBP10 / RFU, CNEP1R1 / Fold change vs veh, CNEP1R1 / RFU, BIVM-ERCC5 /// ERCC5 / Fold change vs veh, BIVM-ERCC5 /// ERCC5 / RFU, ILF3 / Fold change vs veh, ILF3 / RFU 11762660_at / Fold change /veh 11762660_at / RFU VCAN (11757783_s_at) / Fold change /veh VCAN (11757783_s_at) / RFU DDX43 (11728927_at) / Fold change /veh DDX43 (11728927_at) / RFU KRT8 (11758188_x_at) / Fold change /veh KRT8 (11758188_x_at) / RFU NKD1 (11759106_at) / Fold change /veh NKD1 (11759106_at) / RFU SRD5A1 (11742802_a_at) / Fold change /veh SRD5A1 (11742802_a_at) / RFU TPSAB1 /// TPSB2 (11721975_s_at) / Fold change /veh TPSAB1 /// TPSB2 (11721975_s_at) / RFU GSTM3 (11746129_a_at) / Fold change /veh GSTM3 (11746129_a_at) / RFU IL23R (11737362_x_at) / Fold change /veh IL23R (11737362_x_at) / RFU TMEM51 (11727254_a_at) / Fold change /veh TMEM51 (11727254_a_at) / RFU PIWIL2 (11732686_x_at) / Fold change /veh PIWIL2 (11732686_x_at) / RFU ORM1 (11744905_x_at) / Fold change /veh ORM1 (11744905_x_at) / RFU CCDC152 (11743942_at) / Fold change /veh CCDC152 (11743942_at) / RFU ECM1 (11717891_a_at) / Fold change /veh ECM1 (11717891_a_at) / RFU IL23R (11748794_a_at) / Fold change /veh IL23R (11748794_a_at) / RFU TNFAIP8L3 (11732012_x_at) / Fold change /veh TNFAIP8L3 (11732012_x_at) / RFU MBOAT4 (11741988_at) / Fold change /veh MBOAT4 (11741988_at) / RFU 11764193_at / Fold change /veh 11764193_at / RFU TMEM53 (11763286_at) / Fold change /veh TMEM53 (11763286_at) / RFU MAGEB2 (11727129_at) / Fold change /veh MAGEB2 (11727129_at) / RFU TMEM200A (11744735_a_at) / Fold change /veh TMEM200A (11744735_a_at) / RFU CCDC152 (11751479_a_at) / Fold change /veh CCDC152 (11751479_a_at) / RFU FAM211A (11726209_a_at) / Fold change /veh FAM211A (11726209_a_at) / RFU RGS16 (11746705_a_at) / Fold change /veh RGS16 (11746705_a_at) / RFU VCAN (11755009_s_at) / Fold change /veh VCAN (11755009_s_at) / RFU RHOB (11743442_s_at) / Fold change /veh RHOB (11743442_s_at) / RFU RGS16 (11720943_a_at) / Fold change /veh RGS16 (11720943_a_at) / RFU RGS16 (11720944_at) / Fold change /veh RGS16 (11720944_at) / RFU, VPS4B / Fold change vs veh, VPS4B / RFU, CREB1 / Fold change vs veh, CREB1 / RFU, DNAJC13 / Fold change vs veh, DNAJC13 / RFU, GNAQ / Fold change vs veh, GNAQ / RFU, CDK5R1 / Fold change vs veh, CDK5R1 / RFU, ZRANB3 / Fold change vs veh, ZRANB3 / RFU, CUL4A / Fold change vs veh, CUL4A / RFU, CCNY / Fold change vs veh, CCNY / RFU, UFL1 / Fold change vs veh, UFL1 / RFU, COG3 / Fold change vs veh, COG3 / RFU, DIAPH2 / Fold change vs veh, DIAPH2 / RFU, SKA2 / Fold change vs veh, SKA2 / RFU, AFF3 / Fold change vs veh, AFF3 / RFU, LMF1 / Fold change vs veh, LMF1 / RFU, IPO11 / Fold change vs veh, IPO11 / RFU, DFFB / Fold change vs veh, DFFB / RFU, FOXP1 / Fold change vs veh, FOXP1 / RFU, CARD8 / Fold change vs veh, CARD8 / RFU, STRN3 / Fold change vs veh, STRN3 / RFU, ADK / Fold change vs veh, ADK / RFU, RASSF2 / Fold change vs veh, RASSF2 / RFU, WIPF1 / Fold change vs veh, WIPF1 / RFU, LARP1B / Fold change vs veh, LARP1B / RFU, RASA1 / Fold change vs veh, RASA1 / RFU, RB1 / Fold change vs veh, RB1 / RFU, PPFIA1 / Fold change vs veh, PPFIA1 / RFU, MAT2A / Fold change vs veh, MAT2A / RFU, CCT5 / Fold change vs veh, CCT5 / RFU, WDR92 / Fold change vs veh, WDR92 / RFU, CUX1 / Fold change vs veh, CUX1 / RFU, TTC7A / Fold change vs veh, TTC7A / RFU, TMEM135 / Fold change vs veh, TMEM135 / RFU, DEPTOR / Fold change vs veh, DEPTOR / RFU, CPM / Fold change vs veh, CPM / RFU, DNAJB6 / Fold change vs veh, DNAJB6 / RFU, CACNA2D3 / Fold change vs veh, CACNA2D3 / RFU, DTX4 / Fold change vs veh, DTX4 / RFU, TFCP2 / Fold change vs veh, TFCP2 / RFU, GMCL1 /// GMCL1P1 / Fold change vs veh, GMCL1 /// GMCL1P1 / RFU, AEBP2 / Fold change vs veh, AEBP2 / RFU, SNHG1 /// SNORD22 /// SNORD25 /// SNORD26 /// SNORD27 /// SNORD28 /// SNORD29 /// SNORD31 / Fold change vs veh, SNHG1 /// SNORD22 /// SNORD25 /// SNORD26 /// SNORD27 /// SNORD28 /// SNORD29 /// SNORD31 / Fold change (Aza/veh), C12orf56 (ProbeSet 11735607_a_at) / Fold change (ACY-1035/veh), C12orf56 (ProbeSet 11735607_a_at) / Fold change (Aza/veh), FGFR1OP (ProbeSet 11751329_s_at) / Fold change (ACY-1035/veh), FGFR1OP (ProbeSet 11751329_s_at) / Fold change (Aza/veh), VPS36 (ProbeSet 11739960_a_at) / Fold change (ACY-1035/veh), VPS36 (ProbeSet 11739960_a_at) / RFU SYPL1 (11715823_x_at) / Fold change /veh SYPL1 (11715823_x_at) / RFU IGFBP7 (11715501_s_at) / Fold change /veh IGFBP7 (11715501_s_at) / RFU REEP3 (11722064_at) / Fold change /veh REEP3 (11722064_at) / RFU IGLL1 (11728026_x_at) / Fold change /veh IGLL1 (11728026_x_at): dose or concentration left out as unconfirmed. The note with it: MV-4-11 cells, 48 hours.

`Nc1ncn([C@@H]2O[C@H](CO)[C@@H](O)[C@H]2O)c(=O)n1` [azacitidine]: the “RFU MYO3A (11730013_a_at)” value was 81.22 RFU.
